Converted amounts (≈) assume the structure as drawn. One block for each molecule: values may come before it.
Columns and labels:
[1] = biological target: T1, Prostaglandin D2 receptor 2 (Homo sapiens, UniProt Q9Y5Y4); assay: Displacement of [3H]PGD2 from human CRTH2 receptor expressed in CHO cells after 90 mins by scintillation proximity assay; assay type: cell-based
T1 sequence (Q9Y5Y4 whole entry): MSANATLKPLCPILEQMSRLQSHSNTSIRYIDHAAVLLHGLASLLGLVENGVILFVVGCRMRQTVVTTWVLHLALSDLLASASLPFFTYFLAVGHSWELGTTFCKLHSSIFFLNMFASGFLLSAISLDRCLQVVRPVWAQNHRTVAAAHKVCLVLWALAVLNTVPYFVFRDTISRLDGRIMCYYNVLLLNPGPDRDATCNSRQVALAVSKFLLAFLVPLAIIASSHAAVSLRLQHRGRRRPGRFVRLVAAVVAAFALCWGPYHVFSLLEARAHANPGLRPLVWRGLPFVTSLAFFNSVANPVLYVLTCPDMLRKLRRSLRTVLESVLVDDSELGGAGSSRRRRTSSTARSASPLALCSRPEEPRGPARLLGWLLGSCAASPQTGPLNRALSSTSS

[2] = Apparent permeability of the compound in human Caco2 cells; assay type: ADME, cell-based; details: Caco-2
[3] = Half life in human plasma; assay type: ADME, cell-free
[4] = Drug degradation at pH 7.4 after 24 hrs; assay type: physicochemical; details: buffer, read-out: Drug degradation
[5] = Drug degradation at pH 8 after 24 hrs; assay type: physicochemical; details: buffer, read-out: Drug degradation
[6] = Stability assessed as drug degradation by measuring 2,2'-(5-chloro-3-(2-fluorobenzylcarbamoyl)-2-oxoindoline-1,3-diyl)diacetic acid formation at pH > 6 after 24 hrs; assay type: physicochemical
[7] = Stability assessed as drug degradation by measuring 2-(5-chloro-3-(2-(2-fluorobenzylamino)-2-oxoethyl)-2-oxoindolin-1-yl)acetic acid formation at pH > 6 after 24 hrs; assay type: physicochemical
[8] = Oral bioavailability in C57BL/6 mouse at 5 mg/kg; assay type: ADME, organism-based; details: in vivo
[9] = Clearance in C57BL/6 mouse at 1 mg/kg, iv and 5 mg/kg, po; assay type: ADME, organism-based; details: in vivo
[10] = Fraction unbound in human plasma; assay type: ADME, cell-free
[11] = Fraction unbound in rat plasma; assay type: ADME, cell-free
[12] = Fraction unbound in mouse plasma; assay type: ADME, cell-free
[13] = Clearance in Sprague-Dawley rat at 1 mg/kg, iv and 5 mg/kg, po; assay type: ADME, organism-based; details: in vivo
Liver microsomes = assay: Clearance in human liver microsomes; assay type: ADME, Microsome
Hepatocyte [14] = assay: Clearance in human hepatocytes; assay type: ADME, cell-based
[15] = Oral bioavailability in Sprague-Dawley rat at 5 mg/kg; assay type: ADME, organism-based; details: in vivo
[16] = Oral bioavailability in guinea pig; assay type: ADME, organism-based, Cavia porcellus; details: in vivo
[17] = Oral bioavailability in monkey; assay type: ADME, organism-based, Macaca mulatta; details: rhesus monkey, in vivo
[18] = Oral bioavailability in dog; assay type: ADME, organism-based, Canis lupus familiaris; details: in vivo
[19] = Solubility of the compound in simulated gastric fluid; assay type: physicochemical
[20] = Bioavailability in Sprague-Dawley rat administered by portal vein; assay type: ADME, organism-based; details: in vivo
[21] = Drug degradation at pH 9 after 24 hrs; assay type: physicochemical; details: buffer, read-out: Drug degradation
[22] = Drug degradation in human plasma after 24 hrs; assay type: ADME, cell-free; details: read-out: Drug degradation
[23] = Bioavailability in Sprague-Dawley rat after intraduodenal administration; assay type: ADME, organism-based; details: in vivo
[24] = AUC in C57BL/6 mouse at 5 mg/kg, po; assay type: ADME, organism-based; set-up: dose 5 mg/kg, route oral; details: plasma
[25] = Solubility of the compound in fasted state simulated intestinal fluid
Mus musculus [26] = assay: Antiinflammatory activity in ovalbumin-sensitised Balb/c mouse assessed as reduction in ovalbumin-induced eosinophil count in bronchoalveolar lavage fluid at 1 mg/kg, ip administered 1 hr before and 7 hrs after ovalbumin challenge measured after 8 hrs by haemocytometeric analysis; assay type: functional; details: Lung, route intraperitoneal
[27] = Intrinsic clearance in rat liver microsomes; assay type: ADME, Microsome; details: read-out: CLH
Mus musculus [28] = assay: Antiinflammatory activity in ovalbumin-sensitised Balb/c mouse assessed as reduction in ovalbumin-induced eosinophil count in bronchoalveolar lavage fluid at 30 mg/kg, po administered 1 hr before and 7 hrs after ovalbumin challenge measured after 8 hrs by haemocytometeric analysis; assay type: functional; details: Lung
[29] = biological target: T2, Prostaglandin E2 receptor EP1 subtype (Homo sapiens) (UniProt P34995); assay: Inhibition of EP1 at 10 uM
T2 sequence (whole entry): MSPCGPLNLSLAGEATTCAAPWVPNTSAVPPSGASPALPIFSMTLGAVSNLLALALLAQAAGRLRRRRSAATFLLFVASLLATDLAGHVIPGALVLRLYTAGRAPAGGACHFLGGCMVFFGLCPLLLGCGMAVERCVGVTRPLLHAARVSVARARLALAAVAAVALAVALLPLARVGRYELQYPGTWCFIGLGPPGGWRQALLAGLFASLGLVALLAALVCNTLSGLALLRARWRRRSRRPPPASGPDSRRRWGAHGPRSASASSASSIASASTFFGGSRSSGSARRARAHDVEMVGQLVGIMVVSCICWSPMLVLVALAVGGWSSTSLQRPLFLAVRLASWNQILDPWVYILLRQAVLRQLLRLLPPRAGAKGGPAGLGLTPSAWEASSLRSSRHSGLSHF

[30] = biological target: Prostaglandin E2 receptor EP2 subtype (Homo sapiens) (UniProt P43116); assay: Inhibition of EP2 at 10 uM
Chain of Prostaglandin E2 receptor EP2 subtype (Homo sapiens) (P43116 whole entry): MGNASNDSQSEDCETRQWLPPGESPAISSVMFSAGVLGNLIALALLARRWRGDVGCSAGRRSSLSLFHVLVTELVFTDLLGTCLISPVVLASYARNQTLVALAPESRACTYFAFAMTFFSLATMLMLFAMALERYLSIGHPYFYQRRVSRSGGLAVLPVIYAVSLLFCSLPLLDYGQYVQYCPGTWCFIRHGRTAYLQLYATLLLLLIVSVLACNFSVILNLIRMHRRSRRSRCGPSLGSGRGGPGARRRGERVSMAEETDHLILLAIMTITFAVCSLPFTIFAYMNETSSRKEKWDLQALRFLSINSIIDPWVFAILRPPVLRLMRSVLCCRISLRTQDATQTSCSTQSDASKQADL

[31] = biological target: T3, Prostaglandin D2 receptor (Homo sapiens) (UniProt Q13258); assay: Inhibition of DP1 expressed in human HEK cells at 20 uM; assay type: cell-based; details: HEK293
T3 sequence (whole entry): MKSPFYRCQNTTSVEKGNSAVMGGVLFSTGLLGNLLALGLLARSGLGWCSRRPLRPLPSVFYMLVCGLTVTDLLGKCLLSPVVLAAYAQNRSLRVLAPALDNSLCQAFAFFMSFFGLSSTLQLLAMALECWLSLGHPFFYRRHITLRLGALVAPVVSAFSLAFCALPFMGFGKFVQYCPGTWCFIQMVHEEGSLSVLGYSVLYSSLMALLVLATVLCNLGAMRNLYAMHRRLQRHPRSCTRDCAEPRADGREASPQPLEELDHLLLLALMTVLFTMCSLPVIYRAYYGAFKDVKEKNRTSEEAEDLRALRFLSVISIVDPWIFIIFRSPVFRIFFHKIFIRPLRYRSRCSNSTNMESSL

[32] = biological target: T3, Prostaglandin D2 receptor (Homo sapiens); assay: Antagonist activity at DP1 receptor expressed in HEK cells assessed as inhibition of PGD2-induced cAMP production at 20 uM; assay type: functional, cell-based; details: HEK293
[33] = biological target: Voltage-gated inwardly rectifying potassium channel KCNH2 (Homo sapiens, UniProt Q12809); assay: Inhibition of human Erg
Chain of Voltage-gated inwardly rectifying potassium channel KCNH2 (Q12809 whole entry): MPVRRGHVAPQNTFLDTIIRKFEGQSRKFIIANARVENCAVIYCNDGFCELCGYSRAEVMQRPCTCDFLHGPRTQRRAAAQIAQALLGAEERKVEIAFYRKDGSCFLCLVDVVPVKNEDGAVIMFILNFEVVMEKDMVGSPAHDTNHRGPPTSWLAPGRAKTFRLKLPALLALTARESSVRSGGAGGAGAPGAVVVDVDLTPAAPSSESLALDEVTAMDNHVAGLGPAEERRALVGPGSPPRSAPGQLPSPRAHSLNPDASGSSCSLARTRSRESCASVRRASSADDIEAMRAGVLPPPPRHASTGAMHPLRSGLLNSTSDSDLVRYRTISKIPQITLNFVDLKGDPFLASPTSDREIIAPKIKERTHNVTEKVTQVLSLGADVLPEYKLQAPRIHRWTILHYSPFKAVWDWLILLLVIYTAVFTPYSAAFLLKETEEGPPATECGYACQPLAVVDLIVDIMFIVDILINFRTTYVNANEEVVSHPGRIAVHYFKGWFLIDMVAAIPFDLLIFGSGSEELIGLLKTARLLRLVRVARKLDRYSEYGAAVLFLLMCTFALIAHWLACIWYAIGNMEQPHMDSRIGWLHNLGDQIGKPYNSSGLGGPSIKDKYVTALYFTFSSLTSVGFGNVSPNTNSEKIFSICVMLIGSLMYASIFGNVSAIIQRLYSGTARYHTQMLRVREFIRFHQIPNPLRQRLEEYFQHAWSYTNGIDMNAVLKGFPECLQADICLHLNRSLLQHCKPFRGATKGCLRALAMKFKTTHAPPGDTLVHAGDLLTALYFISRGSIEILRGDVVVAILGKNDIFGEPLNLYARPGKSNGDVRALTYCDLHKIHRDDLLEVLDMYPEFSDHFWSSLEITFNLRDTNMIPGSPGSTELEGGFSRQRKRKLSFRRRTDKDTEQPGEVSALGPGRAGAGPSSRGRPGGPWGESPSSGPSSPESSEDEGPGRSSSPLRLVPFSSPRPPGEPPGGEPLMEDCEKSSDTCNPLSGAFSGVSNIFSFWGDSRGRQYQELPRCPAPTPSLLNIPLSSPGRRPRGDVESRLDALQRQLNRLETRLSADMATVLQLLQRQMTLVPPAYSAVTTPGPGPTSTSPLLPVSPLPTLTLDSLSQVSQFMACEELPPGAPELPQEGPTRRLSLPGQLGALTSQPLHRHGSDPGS

Hepatocyte [34] = assay: Cytotoxicity against primary rat hepatocytes up to 750 uM; assay type: cell-based
HepG2 = assay: Cytotoxicity against human HepG2 cells up to 750 uM; assay type: cell-based
Cytochrome P450 1A2 = biological target: T4, Cytochrome P450 1A2 (Homo sapiens, UniProt P05177); assay: Inhibition of CYP1A2; assay type: ADME
T4 sequence (P05177 whole entry): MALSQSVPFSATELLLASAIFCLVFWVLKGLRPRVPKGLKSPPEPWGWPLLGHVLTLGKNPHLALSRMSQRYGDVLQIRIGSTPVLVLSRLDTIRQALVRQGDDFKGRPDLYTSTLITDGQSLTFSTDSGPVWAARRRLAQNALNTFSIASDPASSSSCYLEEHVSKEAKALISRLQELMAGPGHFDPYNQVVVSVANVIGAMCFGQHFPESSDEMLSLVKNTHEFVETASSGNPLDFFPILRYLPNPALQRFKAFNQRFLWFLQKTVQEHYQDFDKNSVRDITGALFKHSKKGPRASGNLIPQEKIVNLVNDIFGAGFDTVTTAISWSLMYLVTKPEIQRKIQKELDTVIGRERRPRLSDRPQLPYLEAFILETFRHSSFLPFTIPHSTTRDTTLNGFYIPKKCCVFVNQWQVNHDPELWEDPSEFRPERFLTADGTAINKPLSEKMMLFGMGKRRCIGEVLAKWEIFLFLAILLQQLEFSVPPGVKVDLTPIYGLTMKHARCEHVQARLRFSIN

Cytochrome P450 2C19 = Cytochrome P450 2C19 (Homo sapiens, UniProt P33261); assay: Inhibition of CYP2C19; assay type: ADME
Chain of Cytochrome P450 2C19 (P33261 whole entry): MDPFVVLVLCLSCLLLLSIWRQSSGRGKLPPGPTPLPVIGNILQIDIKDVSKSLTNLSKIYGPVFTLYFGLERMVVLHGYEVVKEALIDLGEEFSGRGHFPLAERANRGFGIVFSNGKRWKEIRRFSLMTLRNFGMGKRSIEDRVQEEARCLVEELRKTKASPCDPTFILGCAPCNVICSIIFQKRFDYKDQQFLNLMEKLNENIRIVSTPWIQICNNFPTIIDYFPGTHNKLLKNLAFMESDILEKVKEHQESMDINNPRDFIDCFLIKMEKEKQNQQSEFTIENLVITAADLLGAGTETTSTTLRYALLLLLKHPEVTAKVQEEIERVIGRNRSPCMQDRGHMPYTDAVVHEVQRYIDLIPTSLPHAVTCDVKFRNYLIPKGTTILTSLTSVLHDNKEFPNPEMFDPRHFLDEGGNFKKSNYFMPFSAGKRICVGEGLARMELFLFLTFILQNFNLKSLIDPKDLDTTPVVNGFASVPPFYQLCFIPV

Cytochrome P450 2C8 = biological target: T5, Cytochrome P450 2C8 (Homo sapiens, UniProt P10632); assay: Inhibition of CYP2C8; assay type: ADME
T5 sequence (P10632 whole entry): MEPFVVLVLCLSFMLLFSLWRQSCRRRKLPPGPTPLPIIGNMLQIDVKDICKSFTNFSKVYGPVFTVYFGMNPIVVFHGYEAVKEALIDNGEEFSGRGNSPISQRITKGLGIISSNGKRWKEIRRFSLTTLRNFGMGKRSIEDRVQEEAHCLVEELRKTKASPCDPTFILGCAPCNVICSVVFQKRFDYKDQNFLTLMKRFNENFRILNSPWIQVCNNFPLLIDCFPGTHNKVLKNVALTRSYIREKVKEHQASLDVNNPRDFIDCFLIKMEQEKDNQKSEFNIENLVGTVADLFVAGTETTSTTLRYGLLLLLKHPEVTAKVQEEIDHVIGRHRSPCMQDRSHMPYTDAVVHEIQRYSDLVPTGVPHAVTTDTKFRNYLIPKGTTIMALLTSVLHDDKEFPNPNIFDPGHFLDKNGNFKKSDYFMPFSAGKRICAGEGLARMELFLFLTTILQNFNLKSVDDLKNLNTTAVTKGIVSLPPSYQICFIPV

Cytochrome P450 2C9 = Cytochrome P450 2C9 (Homo sapiens, UniProt P11712); assay: Inhibition of CYP2C9; assay type: ADME
Chain of Cytochrome P450 2C9 (P11712 whole entry): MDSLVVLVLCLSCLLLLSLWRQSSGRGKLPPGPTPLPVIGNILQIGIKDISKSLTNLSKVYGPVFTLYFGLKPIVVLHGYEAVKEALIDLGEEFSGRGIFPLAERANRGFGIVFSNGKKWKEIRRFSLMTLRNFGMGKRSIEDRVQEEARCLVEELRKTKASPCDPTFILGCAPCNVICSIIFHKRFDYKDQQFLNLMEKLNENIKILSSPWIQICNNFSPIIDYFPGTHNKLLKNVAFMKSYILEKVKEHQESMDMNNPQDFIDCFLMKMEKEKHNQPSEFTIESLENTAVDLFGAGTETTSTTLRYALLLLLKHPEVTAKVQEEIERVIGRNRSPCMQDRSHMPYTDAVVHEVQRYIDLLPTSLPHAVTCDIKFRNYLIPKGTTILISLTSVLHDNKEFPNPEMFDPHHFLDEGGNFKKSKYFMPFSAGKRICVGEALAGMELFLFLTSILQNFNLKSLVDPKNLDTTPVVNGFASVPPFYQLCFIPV

Cytochrome P450 2D6 = Cytochrome P450 2D6 (Homo sapiens, UniProt P10635); assay: Inhibition of CYP2D6; assay type: ADME
Chain of Cytochrome P450 2D6 (P10635 whole entry): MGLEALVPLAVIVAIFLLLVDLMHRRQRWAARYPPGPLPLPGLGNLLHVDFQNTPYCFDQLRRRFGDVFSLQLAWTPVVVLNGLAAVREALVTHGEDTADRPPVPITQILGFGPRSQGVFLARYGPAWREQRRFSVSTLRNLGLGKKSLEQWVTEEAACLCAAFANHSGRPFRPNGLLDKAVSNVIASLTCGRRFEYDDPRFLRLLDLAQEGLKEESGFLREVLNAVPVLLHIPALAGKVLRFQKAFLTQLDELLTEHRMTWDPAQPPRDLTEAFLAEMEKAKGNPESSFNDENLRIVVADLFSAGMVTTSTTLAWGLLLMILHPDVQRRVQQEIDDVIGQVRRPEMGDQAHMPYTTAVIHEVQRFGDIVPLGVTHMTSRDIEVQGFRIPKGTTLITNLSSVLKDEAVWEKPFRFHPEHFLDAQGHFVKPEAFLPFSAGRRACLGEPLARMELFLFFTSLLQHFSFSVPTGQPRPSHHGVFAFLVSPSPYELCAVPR

Cytochrome P450 3A4 = Cytochrome P450 3A4 (Homo sapiens, UniProt P08684); assay: Inhibition of CYP3A4; assay type: ADME
Chain of Cytochrome P450 3A4 (P08684 whole entry): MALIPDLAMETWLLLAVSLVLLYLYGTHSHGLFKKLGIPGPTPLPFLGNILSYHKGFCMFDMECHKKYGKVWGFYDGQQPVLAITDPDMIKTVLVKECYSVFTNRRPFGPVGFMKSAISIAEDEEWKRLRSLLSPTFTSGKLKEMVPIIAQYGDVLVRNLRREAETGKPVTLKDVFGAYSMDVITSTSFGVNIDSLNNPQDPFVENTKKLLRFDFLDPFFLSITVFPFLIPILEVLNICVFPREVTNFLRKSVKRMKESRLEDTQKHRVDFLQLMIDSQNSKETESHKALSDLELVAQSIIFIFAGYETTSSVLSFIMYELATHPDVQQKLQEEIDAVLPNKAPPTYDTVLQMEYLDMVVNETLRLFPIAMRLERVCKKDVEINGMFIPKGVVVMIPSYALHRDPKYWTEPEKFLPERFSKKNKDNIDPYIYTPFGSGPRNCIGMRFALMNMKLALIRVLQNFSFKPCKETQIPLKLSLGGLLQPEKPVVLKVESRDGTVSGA

[35] = Intrinsic clearance in human liver microsomes; assay type: ADME, Microsome; details: read-out: CLH
[36] = biological target: Aldo-keto reductase family 1 member B1 (Homo sapiens, UniProt P15121); assay: Inhibition of aldose reductase

Papp [2]: 26 ×10⁻⁶ cm/s | half-life [3]: 1 h
Compound: O=C(O)CN1C(=O)[C@@]2(CC(=O)N(Cc3cc(Cl)ccc3F)C2=O)c2cc(Cl)ccc21

degraded at 24 h [4]: 25% | degraded at 24 h [5]: 50% | half-life [3]: 1 h | Stability [6]: Unstable | Stability [7]: Unstable
Compound: O=C(O)CN1C(=O)[C@@]2(CC(=O)N(Cc3ccccc3F)C2=O)c2cc(Cl)ccc21

Ki [1]: 15 nM | fraction unbound [10]: 0.023 | fraction unbound [11]: 0.03 | fraction unbound [12]: 0.063 | Papp [2]: 0.2 ×10⁻⁶ cm/s | clearance [13]: 2.5 mL/min/kg | CLH (Liver microsomes): < 1 µg/mL/h | CLH (Hepatocyte [14]): 2 µg/mL/h | bioavailability [15]: 6% | bioavailability [8]: 9% | bioavailability [16]: 7% | bioavailability [17]: 10% | bioavailability [18]: 71% | solubility [19]: 10 µg/mL (≈ 22.1 µM) | bioavailability [20]: 90% | degraded at 24 h [5]: < 5% | degraded at 24 h [21]: 45% | metabolised at 24 h [22]: < 15% | bioavailability [23]: 11% | clearance [9]: 13.3 mL/min/kg | AUC [24]: 580 ng·h/mL | solubility [25]: 1500 µg/mL (≈ 3320 µM)
Compound: O=C(O)CN1C(=O)[C@@]2(NC(=O)N(Cc3cc(Cl)ccc3F)C2=O)c2cc(Cl)ccc21

Continued, molecule first:

Compound: Cc1onc(-c2ccccc2)c1CN1C(=O)NC2(C1=O)C(=O)N(CC(=O)O)c1ccc(Cl)cc12 (configuration not stated)
Ki [1]: 7 nM

Compound: CN1C(=O)N(Cc2csc(-c3ccccc3)n2)C(=O)C12C(=O)N(CC(=O)O)c1ccc(Cl)cc12 (configuration not stated)
Ki [1]: 16 nM | bioavailability [8]: < 5% | clearance [9]: 60.5 mL/min/kg

Compound: C[C@@H]1C[C@H]2[C@@H]3CCC4=CC(=O)C=C[C@]4(C)[C@@]3(F)[C@@H](O)C[C@]2(C)[C@@]1(O)C(=O)CO [DEXAMETHASONE]
inhibition in vivo at 1 mg/kg (Mus musculus [26]): 83%

Compound: O=C(O)CN1C(=O)[C@@]2(CC(=O)N(Cc3cc(Cl)ccc3F)C2)c2cc(Cl)ccc21
fraction unbound [10]: < 0.01 | Papp [2]: 1.8 ×10⁻⁶ cm/s | clearance [13]: 12 mL/min/kg | bioavailability [15]: 5% | degraded at 24 h [21]: < 5% | metabolised at 24 h [22]: < 15%

Compound: CN1C(=O)N(Cc2cc(Cl)ccc2F)C(=O)[C@]12C(=O)N(CC(=O)O)c1ccc(Cl)cc12
Ki [1]: 35 nM | fraction unbound [10]: 0.02 | fraction unbound [11]: 0.019 | fraction unbound [12]: 0.05 | Papp [2]: 0.6 ×10⁻⁶ cm/s | bioavailability [15]: 37% | bioavailability [8]: 39% | microsomal CLint [27]: < 10 µL/min/mg | inhibition in vivo at 30 mg/kg (Mus musculus [28]): 67% | inhibition [29]: 32% | inhibition [30]: 34% | inhibition [31]: < 30% | inhibition [32]: < 30% | inhibition (INH) [33]: Not Active | Activity (Hepatocyte [34]): Non-toxic | Activity (HepG2): Non-toxic | IC50 (Cytochrome P450 1A2): > 10000 nM | IC50 (Cytochrome P450 2C19): > 10000 nM | IC50 (Cytochrome P450 2C8): > 10000 nM | IC50 (Cytochrome P450 2C9): > 10000 nM | IC50 (Cytochrome P450 2D6): > 10000 nM | IC50 (Cytochrome P450 3A4): > 10000 nM | microsomal CLint [35]: < 10 µL/min/mg | IC50 [36]: 150 nM | clearance [9]: 13.3 mL/min/kg | AUC [24]: 2400 ng·h/mL

Compound: Cc1onc(-c2ccccc2)c1CN1C(=O)N(C)C2(C1=O)C(=O)N(CC(=O)O)c1ccc(Cl)cc12 (configuration not stated)
Ki [1]: 110 nM
